Data reported in patent US20080105961A1, “Ligands of the Molecule Fit (Agt-121) and their Pharmaceutical Use” (priority 2004, published 2008).
Marks after values point to notes of the source that are not given here.

Tests used:
FIT mRNA [1] = assay: Hypothalamic FIT gene expression by semi-quantitative RT-PCR in ICV antisense-treated rats; format: in vivo, Sprague Dawley rats; details: hypothalamus, ICV-treated Sprague Dawley rats, mean ± SEM
Procedure: To confirm endogenous suppression of FIT in antisense-treated Sprague Dawley rats, FIT mRNA in the hypothalamus of these animals was measured.

FIT mRNA [2] = assay: ICV infusion of FIT antisense ODN in Sprague Dawley rats: food intake and body weight; format: in vivo
Procedure: To confirm the appetite-suppressing and weight-reducing effects of central FIT suppression in an animal model other than P. obesus, the inventors performed the same experiments in Sprague Dawley rats. Male, 12 week old Sprague Dawley rats were infused with either saline, FIT antisense ODN, or jumbled ODN at 24 μg/day for four days. The sequence of the FIT antisense ODN and the jumbled ODN are the same as in Example 2 above.

FIT mRNA [3] = assay: Pair-feeding study with indirect calorimetry (24 h): body weight, food intake, total energy expenditure; format: in vivo, Sprague Dawley rats; details: mean ± SEM; for Day 0 BW: baseline
Procedure: To investigate the mechanism of weight loss after FIT antisense treatment, a group of Sprague Dawley rats were pair fed to the average daily food intake levels of FIT antisense-treated rats, and indirect calorimetry (24 h) was performed before and after FIT antisense or jumbled ODN ICV infusion.
Total energy expenditure (TEE) was calculated from measurements of oxygen consumption and carbon dioxide production using indirect calorimetry (Ferrannini, 1988). Due to differences in body weight between the three groups of rats, TEE levels were calculated relative to whole body mass of the animals. […] FIT antisense-treated rats therefore have an inappropriately high level of energy expenditure for their body weight.

FIT mRNA [4] = assay: ICV infusion of FIT antisense ODN in Psammomys obesus: food intake and body weight; format: in vivo
Procedure: To further investigate the orexigenic properties of FIT intracerebroventricular (ICV) antisense suppression of FIT was performed. This involved the infusion of FIT antisense oligonucleotides (ODNs) directly into the lateral ventricle space of the brain to suppress endogenous FIT mRNA levels. The effects of this treatment on food intake and body weight were measured and compared to control animals infused with a jumbled sequence ODN, or saline alone. 18 week old, male, lean, normal glucose tolerant (nGT) P. obesus animals were utilised for this study and infused with either saline, FIT antisense ODN, or jumbled ODN at 24 μg/day for four days. The sequence of the FIT antisense ODN was 5′-mu*mg*mg*mc*ma*g*a*a*t*t*g*c*a*mu*mu*mc*mc*mu*-3′, and the jumbled ODN 5′-mc*mg*mc*ma*mc*t*t*a*g*c*t*a*c*mu*mu*mg*mc*mu-3′, where m indicates the presence of a 2′O-Methyl-modified base, and * indicates a phosphorothioate linkage.

melanocortin receptor = assay: Feeding response to ICV injection of SHU9119 after three days of ODN or saline infusion; format: in vivo, Sprague Dawley rats; details: mean ± SEM
Source text: To further analyse the link between FIT and the melanocortin system, the feeding response of Sprague Dawley rats to an ICV injection of SHU9119, a melanocortin receptor antagonist and known feeding stimulator was investigated. After three days of FIT antisense treatment, jumbled oligonucleotide or saline infusion, responses were compared to rats receiving an ICV injection of saline vehicle rather than SHU9119.

FIT mRNA [5] = assay: Metabolic heat production by indirect calorimetry (FIG. 1); format: in vivo, Sprague Dawley rats; details: pair fed, last half of dark phase and majority of light phase
Source text: FIG. 1 is a graphical representation of metabolic heat production in Sprague Dawley rats after three days of FIT antisense-treatment compared to jumbled ad libitum fed and jumbled pair fed rats. *p<0.05 pair fed compared to jumbled group, #p<0.05 pair fed compared to FIT antisense-treated group, ̂p<0.05 compared to both jumbled and FIT antisense-treated groups. Data are mean ±SEM.
To further dissect the nature of the inability to reduce TEE levels after FIT antisense treatment, metabolic heat production was measured by indirect calorimetry.

MC4R = molecular target: T1, MC4R (Rattus norvegicus, UniProt P70596); assay: Feeding response to MT II after ODN or saline infusion; format: in vivo, Sprague Dawley rats; details: mean ± SEM
T1 construct: from tissue; host or cells: living Sprague Dawley rats (brain)
Procedure: To further investigate this relationship, antisense suppression of FIT in Sprague Dawley rats was again performed and these animals' responses to administration of the α-MSH analog MT II, a synthetic agonist of the MC4R and known suppressor of feeding. MT II effects on food intake and body weight in saline and jumbled ODN-treated control rats, as well as in FIT antisense-treated rats was measured.

[6] = ICV 24 μg/day, day 1, mean ± SEM
[7] = ICV 24 μg/day, day 2, mean ± SEM
[8] = ICV 24 μg/day, day 3, mean ± SEM
[9] = ICV 24 μg/day, day 4, mean ± SEM
[10] = baseline body weight, mean ± SEM
[11] = change compared to day 0, mean ± SEM
[12] = not pair fed (jumbled group ad libitum fed)
[13] = pair fed to food intake of FIT antisense-treated rats

T1 sequence (P70596 whole entry, the tested form may be a part): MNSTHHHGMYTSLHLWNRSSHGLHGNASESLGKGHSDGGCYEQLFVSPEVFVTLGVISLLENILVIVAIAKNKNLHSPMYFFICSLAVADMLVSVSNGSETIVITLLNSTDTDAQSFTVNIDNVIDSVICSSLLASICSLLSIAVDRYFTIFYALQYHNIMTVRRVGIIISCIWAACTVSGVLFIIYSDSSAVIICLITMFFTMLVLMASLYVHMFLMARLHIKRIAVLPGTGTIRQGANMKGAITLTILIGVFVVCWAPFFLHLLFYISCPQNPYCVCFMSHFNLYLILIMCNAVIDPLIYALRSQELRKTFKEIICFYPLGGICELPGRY

Substance: 5′-mc*mg*mc*ma*mc*t*t*a*g*c*t*a*c*mu*mu*mg*mc*mu-3′ [Jumbled, reference compound]
- FIT gene expression (FIT mRNA [1]): 8.4 ± 0.6 arbitrary units
- Cumulative food intake, Day 1 Food (FIT mRNA [2]; [6]): 18.7 ± 2.4 g
- Cumulative food intake, Day 2 Food (FIT mRNA [2]; [7]): 44.7 ± 4.1 g
- Cumulative food intake, Day 3 Food (FIT mRNA [2]; [8]): 72.6 ± 5.1 g
- Cumulative food intake, Day 4 Food (FIT mRNA [2]; [9]): 101.5 ± 6.1 g
- Day 1 BW (FIT mRNA [2]; ICV 24 μg/day, mean ± SEM): 457 ± 24 g
- Day 2 BW (FIT mRNA [2]; ICV 24 μg/day, mean ± SEM): 468 ± 23 g
- Day 3 BW (FIT mRNA [2]; ICV 24 μg/day, mean ± SEM): 473 ± 23 g
- Day 4 BW (FIT mRNA [2]; ICV 24 μg/day, mean ± SEM): 477 ± 22 g
- Day 0 BW (FIT mRNA [2]; [10]): 465 ± 24 g
- Day 1 ΔBW (FIT mRNA [2]; [11]): -7.8 ± 3.6 g
- Day 2 ΔBW (FIT mRNA [2]; [11]): 3.5 ± 3.7 g
- Day 3 ΔBW (FIT mRNA [2]; [11]): 6.3 ± 3.5 g
- Day 4 ΔBW (FIT mRNA [2]; [11]): 12.0 ± 4.1 g
- Day 0 BW (FIT mRNA [3]; [12]): 404 ± 31 g
- Day 4 BW (FIT mRNA [3]; [12]): 386 ± 24 g
- Food Intake (FIT mRNA [3]; [12]): 81.1 ± 10.3 g
- Δ BW (FIT mRNA [3]; [12]): -17.3 ± 8.9 g
- Δ TEE (FIT mRNA [3]; not pair fed): -21 ± 17 kJ/day/kg
- Post TEE (FIT mRNA [3]; not pair fed, total energy expenditure after ICV infusion): 492 ± 61 kJ/day/kg
- Pre TEE (FIT mRNA [3]; not pair fed, total energy expenditure before ICV infusion): 513 ± 62 kJ/day/kg
- Day 0 BW (FIT mRNA [3]; [13]): 357 ± 9 g
- Day 4 BW (FIT mRNA [3]; [13]): 317 ± 7^a g
- Food Intake (FIT mRNA [3]; [13]): 39.1 ± 3.2^a g
- Δ BW (FIT mRNA [3]; [13]): -39.7 ± 9.9 g
- Post TEE (FIT mRNA [3]; pair fed, after ICV infusion): 456 ± 30^c kJ/day/kg
- Pre TEE (FIT mRNA [3]; pair fed, before ICV infusion): 556 ± 59 kJ/day/kg
- Δ TEE (FIT mRNA [3]; pair fed): -100 ± 28 kJ/day/kg
- Cumulative food intake, Day 1 Food (FIT mRNA [4]; [6]): 8.9 ± 0.5^a g
- Cumulative food intake, Day 2 Food (FIT mRNA [4]; [7]): 17.3 ± 1.0^a g
- Cumulative food intake, Day 3 Food (FIT mRNA [4]; [8]): 27.3 ± 1.5^a g
- Cumulative food intake, Day 4 Food (FIT mRNA [4]; [9]): 38.7 ± 2.7 g
- Day 1 BW (FIT mRNA [4]; ICV 24 μg/day, mean ± SEM): 188 ± 9 g
- Day 2 BW (FIT mRNA [4]; ICV 24 μg/day, mean ± SEM): 188 ± 9 g
- Day 3 BW (FIT mRNA [4]; ICV 24 μg/day, mean ± SEM): 187 ± 9 g
- Day 4 BW (FIT mRNA [4]; ICV 24 μg/day, mean ± SEM): 187 ± 9 g
- Day 0 BW (FIT mRNA [4]; [10]): 191 ± 9 g
- Day 1 ΔBW (FIT mRNA [4]; [11]): -3.8 ± 0.7 g
- Day 2 ΔBW (FIT mRNA [4]; [11]): -3.3 ± 0.8 g
- Day 3 ΔBW (FIT mRNA [4]; [11]): -4.0 ± 1.6 g
- Day 4 ΔBW (FIT mRNA [4]; [11]): -3.5 ± 1.7 g
- Δ FI (melanocortin receptor; 48 hr food intake post minus pre injection): 0.03 ± 0.02 g/g BW
- 48 hr FI post injection (melanocortin receptor; food intake relative to body weight, after ICV SHU9119 or vehicle injection): 0.13 ± 0.01 g/g BW
- 48 hr FI pre injection (melanocortin receptor; food intake relative to body weight, during ICV infusion, before SHU9119 or vehicle injection): 0.10 ± 0.01 g/g BW
- metabolic heat production compared to jumbled-treated ad libitum fed and FIT antisense-treated rats (FIT mRNA [5]): significantly reduced heat production
- Δ FI (MC4R; 24 hr food intake post minus pre injection): −0.02 ± 0.01 g/g BW
- 24 hr FI post injection (MC4R; food intake after MT II or vehicle injection): 0.04 ± 0.01 g/g BW
- 24 hr FI pre injection (MC4R; food intake, during ICV infusion, before MT II or vehicle injection): 0.06 ± 0.01 g/g BW
